As usually defined, the EC50 is the concentration that produces a half-maximal response. One may read the half-life as the time in which the quantity being followed falls by half. A higher half-life goes with slow decline.

This is an account of results in patent publication US11981666B2, “GLP-1 receptor agonist and composition and use thereof” (HANGZHOU ZHONGMEIHUADONG PHARMACEUTICAL CO., LTD., priority 2021, dated 2024).

The structures appear in SMILES notation.

The target of one data set is T1, Human GLP-1R (Homo sapiens, UniProt P43220).
T1 construct: expressed in transfected cells
Put plainly: GLP-1R agonistic activity assay (HTRF cAMP, 293A GFP-GLP-1R cells). To be noted: cAMP level, geometric mean. It is filed as cell-based. An excerpt: The method was a competitive immunoassay.
(In general: In TR-FRET formats the signal depends on donor and acceptor labels being close together.)

Data set [1] is described as follows: Metabolic stability in (human) liver microsomes. It is filed as in vitro ADME. To be noted: pH 7.4, test concentration 1 μM. On the technique in general: Liver microsomes are vesicles of endoplasmic reticulum, rich in cytochrome P450 enzymes.
Description: 3×NADPH stock solution (6 mM, 5 mg/mL) was prepared by dissolving NADPH in the buffer solution; 4. 30 μL of 1.5 μM additive solution containing 0.75 mg/mL microsomal solution was distributed to the plates designated for different time points (0, 5, 15, 30, 45 minutes); 5. at 0 min, 150 μL of ACN containing IS was added to the wells of the plate, followed by addition of 15 μL of NADPH stock solution (6 mM, step 3); 6. all other plates were pre-incubated at 37° C. for 5 minutes; 7. adding 15 μL of NADPH stock solution to the plate to start the reaction and timing; 8. 150 μL of ACN containing IS was added to the wells of the corresponding plates to stop the reaction at 5 min, 15 min, 30 min and 45 min, respectively; 9. after quenching, the plates were shaken on a shaker for 10 minutes (600 rpm/min) and then centrifuged at 6000 rpm for 15 minutes; 10. 80 μL of supernatant was transferred from each well to a 96-well sample plate containing 140 μL water for LC/MS analysis.
Detection method: LC-MS/MS-11 (8050), internal standard: tolbutamide; MS conditions: positive ion ESI for testosterone and test compound, and negative ion ESI for tolbutamide; Mobile phases: mobile phase A is 0.1% FA in water, and mobile phase B is 0.1% FA in ACN; Column and specification: ACQUITY UPLC HSS T3 1.8 um 2.1*50 mm.

T1 sequence (P43220 24-463): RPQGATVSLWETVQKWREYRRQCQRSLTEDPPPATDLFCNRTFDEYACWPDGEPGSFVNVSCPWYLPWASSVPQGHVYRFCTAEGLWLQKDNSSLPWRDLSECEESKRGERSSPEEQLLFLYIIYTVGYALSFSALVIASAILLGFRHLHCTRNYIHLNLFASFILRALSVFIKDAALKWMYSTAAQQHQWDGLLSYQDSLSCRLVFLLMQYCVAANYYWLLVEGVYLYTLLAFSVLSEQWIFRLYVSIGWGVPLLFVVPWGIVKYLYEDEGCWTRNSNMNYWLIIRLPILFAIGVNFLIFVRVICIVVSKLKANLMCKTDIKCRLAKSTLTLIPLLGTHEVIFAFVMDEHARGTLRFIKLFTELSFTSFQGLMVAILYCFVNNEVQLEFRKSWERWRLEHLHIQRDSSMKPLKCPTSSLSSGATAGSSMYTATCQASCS

For `O=C(O)c1ccc2nc(CN3CCC4c5nc(OCc6ccc(C7COC7)cc6F)ccc5COCC4C3)n(C[C@@H]3CCO3)c2c1` (single isomer, unassigned) [Compound 12-B], at Human GLP-1R, the midpoint of the response, the EC50, lay at 0.1 nM. Besides, in data set [1], the half-life at 1 μM is 1.2 h.

`O=C(O)c1ccc2nc(CN3CCC4c5nc(OCc6ccc(C7COC7)cc6Cl)ccc5COCC4C3)n(CC3CCO3)c2c1` (single isomer, unassigned) [Compound 17-B]: on Human GLP-1R, the EC50 stood at 0.14 nM.

Take `O=C(O)c1ccc2nc(CN3CCC(c4cccc(OCc5ccc(C6COC6)cc5Cl)n4)CC3)n(C[C@@H]3CCO3)c2c1` [Compound 2, (S)-2-((4-(6-((2-chloro-4-(oxetan-3-yl)benzyl)oxy)pyridin-2-yl)piperidin-1-yl)methyl)-1-(oxetan-2-ylmethyl)-1H-benzo[d]imidazole-6-carboxylic acid]: the EC50 at Human GLP-1R came out at 0.07 nM. In addition, the half-life at 1 μM in data set [1] came to 2.06 h.

Consider `COc1cc(C2COC2)ccc1COc1cccc(C2CCN(Cc3nc4ccc(C(=O)O)cc4n3C[C@@H]3CCO3)CC2)n1` [Compound 3, (S)-2-((4-(6-((2-methoxy-4-(oxetan-3-yl)benzyl)oxy)pyridin-2-yl)piperidin-1-yl)methyl)-1-(oxetan-2-ylmethyl)-1H-benzo[d]imidazole-6-carboxylic acid], for which the EC50 on Human GLP-1R came out at 0.03 nM. The half-life at 1 μM in data set [1] turned out to be 2.56 h.

The molecule `N#CCC1(Cn2c(CN3CCC(c4cccc(OCc5ccc(C6COC6)cc5F)n4)CC3)nc3ccc(C(=O)O)cc32)CC1` [Compound 4, 1-((1-(cyanomethyl)cyclopropyl)methyl)-2-((4-(6-((2-fluoro-4-(oxetan-3-yl)benzyl)oxy)pyridin-2-yl)piperidin-1-yl)methyl)-1H-benzo[d]imidazole-6-carboxylic acid] displayed an EC50 on Human GLP-1R of 0.08 nM.

`O=C(O)c1ccc2nc(CN3CCC(c4cccc(OCc5ccc(C6COC6)cc5F)n4)CC3)n(CC3(CF)CC3)c2c1` [Compound 5, 2-((4-(6-((2-fluoro-4-(oxetan-3-yl)benzyl)oxy)pyridin-2-yl)piperidin-1-yl)methyl)-1-((1-(fluoromethyl)cyclopropyl)methyl)-1H-benzo[d]imidazole-6-carboxylic acid] had an EC50 on Human GLP-1R of 0.003 nM.

On Human GLP-1R, `O=C(O)c1ccc2nc(CN3CCC(c4cccc(OCc5ccc(C6COC6)cn5)n4)CC3)n(C[C@@H]3CCO3)c2c1` [Compound 6, (S)-1-(oxetan-2-ylmethyl)-2-((4-(6-((5-(oxetan-3-yl)pyridin-2-yl)methoxy)pyridin-2-yl)piperidin-1-yl)methyl)-1H-benzo[d]imidazole-6-carboxylic acid] came in with an EC50 of 0.7 nM. In data set [1], this molecule showed a half-life at 1 μM of 0.717 h.

Turning to `O=C(O)c1ccc2nc(CN3CCC4=C(COCc5ccc(OCc6ccc(C7COC7)cc6F)nc54)C3)n(C[C@@H]3CCO3)c2c1` [Compound 7, (S)-2-((2-((2-fluoro-4-(oxetan-3-yl)benzyl)oxy)-5,8,10,11-tetrahydro-oxepino[4,3-b: 6,5-c′]dipyridin-9(7H)-yl)methyl)-1-(oxetan-2-ylmethyl)-1H-benzo[d]imidazole-6-carboxylic acid], at Human GLP-1R, the concentration for a half-maximal effect (EC50) is 0.1 nM. In addition, the half-life at 1 μM in data set [1] is 1.74 h.

As for `N#CCC1(Cn2c(Cc3ccc(-c4cccc(OCc5ccc(C6COC6)cc5F)n4)cc3F)nc3ccc(C(=O)O)cc32)CC1` [Compound 8, 1-((1-(cyanomethyl)cyclopropyl)methyl)-2-(2-fluoro-4-(6-((2-fluoro-4-(oxetan-3-yl)benzyl)oxy)pyridin-2-yl)benzyl)-1H-benzo[d]imidazole-6-carboxylic acid], the EC50 on Human GLP-1R amounted to 0.02 nM.

Turning to `O=C(O)c1ccc2nc(CN3CCC(c4cccc(OCc5ccc(C6COC6)cc5F)n4)CC3)n(CC3(F)CCC3)c2c1` [Compound 9, 2-((4-(6-((2-fluoro-4-(oxetan-3-yl)benzyl)oxy)pyridin-2-yl)piperidin-1-yl)methyl)-1-((1-fluorocyclobutyl)methyl)-1H-benzo[d]imidazole-6-carboxylic acid], it took 0.39 nM to reach a half-maximal effect on Human GLP-1R (EC50).

As for `O=C(O)c1ccc2nc(Cc3ccc(-c4cccc(OCc5ccc(C6COC6)cc5F)n4)cc3F)n(CC3(CF)CC3)c2c1` [Compound 10, 2-(2-fluoro-4-(6-((2-fluoro-4-(oxetan-3-yl)benzyl)oxy)pyridin-2-yl)benzyl)-1-((1-(fluoromethyl)cyclopropyl)methyl)-1H-benzo[d]imidazole-6-carboxylic acid], the midpoint of the response at Human GLP-1R, the EC50, lay at 0.03 nM.

`O=C(O)c1ccc2nc(Cc3ccc(-c4cccc(OCc5ccc(C6COC6)cc5F)n4)cc3F)n(C[C@@H]3CCO3)c2c1` [Compound 11, (S)-2-(2-fluoro-4-(6-((2-fluoro-4-(oxetan-3-yl)benzyl)oxy)pyridin-2-yl)benzyl)-1-(oxetan-2-ylmethyl)-1H-benzo[d]imidazole-6-carboxylic acid] came in with an EC50 at Human GLP-1R of 0.011 nM. In data set [1], this molecule gave a half-life at 1 μM of 1.05 h.

`O=C(O)c1ccc2nc(CN3CCC(c4cccc(OCc5ccc(C6(F)COC6)cc5F)n4)CC3)n(C[C@@H]3CCO3)c2c1` [Compound 15, (S)-2-((4-(6-((2-fluoro-4-(3-fluoroxetan-3-yl)benzyl)oxy)pyridin-2-yl)piperidin-1-yl)methyl)-1-(oxetan-2-ylmethyl)-1H-benzo[d]imidazole-6-carboxylic acid]: the EC50 at Human GLP-1R turned out to be 0.08 nM.

On Human GLP-1R, `O=C(O)c1ccc2nc(CN3CCC(c4cccc(OCc5ccc(C6COC6)cc5C(F)F)n4)CC3)n(C[C@@H]3CCO3)c2c1` [Compound 18, (S)-2-((4-(6-((2-(difluoromethyl)-4-(oxetan-3-yl)benzyl)oxy)pyridin-2-yl)piperidin-1-yl)methyl)-1-(oxetan-2-ylmethyl)-1H-benzo[d]imidazole-6-carboxylic acid] gave an EC50 of 0.85 nM.
